Patent US5646313A, “Amino acid derivatives, processes for their preparation and their therapeutic application” (Societe Civile Bioprojet, priority 1993, dated 1997)

target: enkephalinase; assay: in vitro assay of the enkephalinase-inhibitory activity (J. Pharmac. Exp. Ther., 1987, 243, 666); format: biochemical; conditions: (E) isomer, read-out: (E) Isomer IC50
Method: An assay of the enkephalinase-inhibitory activity (J. Pharmac. Exp. Ther., 1987, 243, 666) of the compounds of formulae (Ia) and (Ib) was performed.

| IC50 [nM] | SMILES |
| --- | --- |
| 7 | CC(CC(=O)O)NC(=O)/C(=C\c1ccccc1)CS (racemic) [Ex 12, 3-(RS)-N-(E)-[1-oxo-2-(mercaptomethyl)-3-phenylpropenyl]aminobutanoic acid] |
| 6.4 | O=C(O)CCCNC(=O)/C(=C\c1ccccc1)CS [Ex 16, 4-N-(E)-[1-oxo-2-(mercaptomethyl)-3-phenylpropenyl]aminobutanoic acid] |
| 10 | CC(CNC(=O)/C(=C\c1ccccc1)CS)C(=O)O (racemic) [Ex 14] |
| 7.5 | O=C(O)CCNC(=O)/C(=C\c1ccc(-c2ccccc2)cc1)CS [Ex 25, N-(E)-[1-oxo-2-(mercaptomethyl)-3-(4-phenylphenyl)propenyl]-β-alanine] |
| 2.8 | O=C(O)CCNC(=O)/C(=C\c1ccccc1)CS [Ex 4, N-(E)-[1-oxo-2-(mercaptomethyl)-3-phenylpropenyl]-β-alanine] |

Further lines, the compound ahead of its results:

| SMILES | IC50 [nM] |
| --- | --- |
| COc1ccc(/C=C(/CS)C(=O)NCCC(=O)O)cc1 [Ex 19, N-(E)-[1-oxo-2-(mercaptomethyl)-3-(4-methoxyphenyl)propenyl]-β-alanin] | 2.7 |
| CC(=O)SC/C(=C/c1ccc2c(c1)OCO2)C(=O)NCCC(=O)OCc1ccccc1 [Ex 43, benzyl N-(E)-[1-oxo-2-(acetylthiomethyl)-3-(3,4-methylenedioxyphenyl)propenyl]-β-alaninate] | 19 |
| O=C(O)CCNC(=O)/C(=C\c1ccc(C(F)(F)F)cc1)CS [Ex 22, N-(E)-[1-oxo-2-(mercaptomethyl)-3-(4-trifluoromethylphenyl)propenyl]-β-alanine] | 12.1 |
| CCOc1ccc(/C=C(/CS)C(=O)NCCC(=O)O)cc1 [Ex 28, N-(E)-[1-oxo-2-(mercaptomethyl)-3-(4-ethoxyphenyl)propenyl]-β-alanine] | 11.8 |
| O=C(O)CCNC(=O)/C(=C\c1cc(F)cc(F)c1)CS [Ex 33, N-(E)-[1-oxo-2-(mercaptomethyl)-3-(3,5-difluorophenyl)propenyl]-β-alanine] | 5.9 |
| O=C(O)CCNC(=O)/C(=C\c1ccc(Oc2ccccc2)cc1)CS [Ex 41, N-(E)-[1-oxo-2-(mercaptomethyl)-3-(4-phenoxyphenyl)propenyl]-β-alanine] | 5.8 |

same assay, conditions: (Z) isomer, read-out: (Z) Isomer IC50

| IC50 [nM] | SMILES |
| --- | --- |
| 171 | O=C(O)CCNC(=O)/C(=C/c1ccccc1)CS [Ex 38, N-(Z)-[1-oxo-2-(mercaptomethyl)-3-phenylpropenyl]-β-alanine] |
